Here are results for 39 molecules from PubChem BioAssay (NCI).

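Five compound concentrations were applied to cells in 96-well plates for 48 hours; endpoints were derived by simple linear interpolation of the resulting dose-response curve. GI50 = concentration required for 50% inhibition of growth. Definition used: TGI = concentration required for complete inhibition of growth.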

The subject of this experiment is MDA-MB-468 breast. Nature of the experiment: NCI tumour cell line growth inhibition, 48 h.
With `COc1cccc(-c2nn(C)c3sc(C(=O)NCCN4CCN(c5ccccc5F)CC4)cc23)c1`, the GI50 was 7810 nM and the TGI is greater than 100000 nM.

As to `COc1cc(-c2cc(C(=O)N3CCN(C(=O)c4ccccc4NCc4cccs4)CC3)nc3cc(-c4ccccc4)nn23)cc(OC)c1OC`, the GI50 is 2710 nM and the TGI is 14000 nM. Regarding `COc1cc(/C=C2\CCCC3=C2N=C2SC=NN2C3c2cc(OC)c(OC)c(OC)c2)cc(OC)c1OC` (stereo unspecified), the GI50 was 2330 nM and the TGI worked out at 7520 nM. In the case of `CCOc1ccc(-n2cc(-c3ccc(N(C)C)cc3)[n+]3c2CCCCC3)cc1`, the GI50 is 42 nM and the TGI is 2340 nM. Take `O=C(/C=C/c1ccco1)c1cccc(Nc2nc(Nc3ccccc3)nc(Nc3ccccc3)n2)c1`: the GI50 is 2800 nM and the TGI was found to be 28900 nM. For the molecule `COc1cc(-c2nc3cc(Cl)c(Cl)cc3[nH]2)ccc1OCC(=O)N=Nc1c(O)[nH]c2ccccc12`, the GI50 is 250 nM and the TGI came out at 685 nM. For `COC(=O)/C=C/c1cc(OC)c2c(c1)[C@@H](C(=O)OC)[C@H](c1ccc(OC)c(OC)c1)O2`, the GI50 is 1710 nM and the TGI was greater than 100000 nM. For `CCCCCCCCCCCC(=O)[O][Sn]([CH2]CCC)([CH2]CCC)[CH2]CCC` the same measures were 28 nM and 78.7 nM. As to `COc1ccc2c(c1)cn1c3ccc(OC)cc3[nH]c(=O)c21`, the GI50 is 63.5 nM and the TGI worked out at 1040 nM. Regarding `Nc1c(S(=O)(=O)O)cc2c(c1Cl)C(=O)c1ccccc1C2=O`, the GI50 is greater than 100000 nM and the TGI was greater than 100000 nM.

On to `O=C1/C=C/[C@@H](O)[C@@H]2C[C@@H](O)C[C@H]2/C=C/CCCCO1`, for which the GI50 was 167 nM. For the molecule `N=C(N)c1ccc(-c2ccc(-c3ccccc3)o2)o1`, the GI50 was 1640 nM and the TGI came to 4190 nM.

On to `OC(c1cc2c(Cl)cc(Cl)cc2c2cc(C(F)(F)F)ccc12)C1CCCCN1` (stereo unspecified), for which the GI50 was 1710 nM and the TGI turned out to be 3220 nM.

With `CCCCCCOc1ccc(/C=N/Nc2cc(C)nc3ccc(Br)cc23)cc1`, the GI50 was 1700 nM and the TGI was found to be 3220 nM. Take `N[C@@H](Cc1ccc(N(CCCl)CCCl)cc1)C(=O)O`: the GI50 is 3840 nM and the TGI is 23700 nM.

Take `c1ccc(Oc2cnc3ccccc3n2)cc1`: the GI50 is 46400 nM and the TGI is greater than 100000 nM. `CC/C(=C(/c1ccc(Cl)cc1)c1ccc(OCCCN(C)C)cc1)c1ccc(OC)cc1`: the GI50 was 1060 nM and the TGI was determined as 2260 nM. In the case of `COc1ccc(-c2nn(C(=O)c3cc(OC)c(OC)c(OC)c3)c3cc(N)ccc23)cc1`, the GI50 is less than 14.1 nM and the TGI was 190 nM.

`Nc1c(C(=O)Nc2cccc3ccccc23)sc2nc3c(cc12)CCCCCC3`: the GI50 is 675 nM and the TGI worked out at 11600 nM. Take `COc1cc(Nc2nccc(-c3cnn4ncccc34)n2)cc(OC)c1`: the GI50 is 64.3 nM and the TGI stood at 217 nM. For `Clc1ccc2c(NCCCNCc3ccc4c(c3)OCO4)ccnc2c1`, the GI50 is 2040 nM and the TGI came to 5130 nM.

Take `Cn1cc(C2=C(c3cn(CCCN/C(N)=N\[N+](=O)[O-])c4ccccc34)C(=O)NC2=O)c2ccccc21`: the GI50 is 2090 nM and the TGI was 9740 nM. Consider `C=CCOc1ccc2c(c1)CC[C@@H]1[C@@H]2CC[C@]2(C)C(=O)/C(=N/O)C[C@@H]12`, for which the GI50 is 2180 nM and the TGI stood at 10600 nM. As for `Nc1ncnc2c1c(-c1ccc(Oc3ccccc3)cc1)nn2C[C@H]1SSC[C@H]1O`, the GI50 is 211 nM and the TGI came to 627 nM. Regarding `CCc1cc(Cc2cc(CC)cc(C(C)(C)C)c2O)c(O)c(C(C)(C)C)c1`, the GI50 is 3540 nM and the TGI stood at 13200 nM. On to `O=c1c(Br)ccc(Br)cc1Br`, for which the GI50 is 830 nM and the TGI was 2620 nM. As for `Nc1nc(-c2ccccc2Cl)cc(-c2ccc(Cl)cc2Cl)n1`, the GI50 was 2180 nM and the TGI is 8660 nM. With `COc1cc(Cl)c(C)cc1NC(=O)c1cc2ccccc2cc1O`, the GI50 is 2760 nM and the TGI amounted to 9740 nM.

Regarding `NC(CSC(c1ccccc1)(c1ccccc1)c1ccc(Br)cc1)C(=O)O` (stereo unspecified), the GI50 was 116 nM and the TGI was greater than 31600 nM.

As to `COc1ccc(S(=O)(=O)Nc2c(/C=C\c3cc(OC)c(OC)c(OC)c3)ccc(OC)c2O)cc1OC`, the GI50 was 75.5 nM and the TGI turned out to be 441 nM. As for `CCOc1ccc(NC2=C(Cl)C(=O)c3nc(C)ccc3C2=O)cc1`, the GI50 was 1490 nM and the TGI stood at 2920 nM. As for `Cc1nc(N(C)C)nc(-c2cccc(-c3ccn(CCN(C)C)n3)c2)c1C`, the GI50 is 12100 nM and the TGI was greater than 20000 nM. `CN(Cc1cccc(Cl)c1)c1ccc(CO)c(Cl)c1`: the GI50 was 57 nM and the TGI was 217 nM. On to `C=C(C=O)[C@@H]1CC=C(C=O)CC1`, for which the GI50 was 2800 nM and the TGI was greater than 100000 nM. Regarding `COc1ccc(/C=N/C2=C(C#N)C(c3ccccc3)c3ccc4ccccc4c3O2)cc1` (stereo unspecified), the GI50 was 454 nM.

`O=c1c(-c2nc3ccccc3[nH]2)cc2ccccc2n1Cc1cn(Cc2ccc(F)cc2)nn1`: the GI50 is 93.1 nM and the TGI came out at 2780 nM.

Regarding `CCOC(=O)C1=CN(Cc2ccccc2)C2ON=C(c3ccc(Cl)cc3)C2C1` (stereo unspecified), the GI50 is 15500 nM and the TGI was greater than 100000 nM. The corresponding values for `O=C1COCCN1c1ccc(NCc2cn(Cc3ccc(F)cc3)c3ccccc23)cc1` are 23.9 nM and 78.3 nM. In the case of `O=C(Nc1ccc(-n2cc(-c3ccncc3)c(-c3ccc(Cl)c(O)c3)n2)cc1)c1ccc(Cl)c(C(F)(F)F)c1`, the GI50 is 1840 nM and the TGI stood at 5680 nM.
